Assays:
HepG2 cells = test: Accumulation of cholesterol precursors / C29-sterols (MAS) in HepG2 cells, GC/MS (SIM); type: cell-based, Human; settings: for FF-MAS Dimethylst.-trien (482 m/z) / Methylst.-dien (470 m/z) / T-MAS Dimethylst.-dien (484 m/z) / changes in the cholesterol precursor pattern / Dienol (m/z 486) / Enol T-MAS (m/z 484) / Trienol FF-MAS (m/z 482) / suppression of the Δ24 reduction step (accumulation of desmosterol): HepG2 cells; for FF-MAS Dimethylst.-trien (482 m/z) / Methylst.-dien (470 m/z) / T-MAS Dimethylst.-dien (484 m/z): bile acids 160 µM, 12-h, n=3, mean ± SD, ratio to internal standard epicoprostanol; for changes in the cholesterol precursor pattern: at 10 µM, compared to potent inhibitors, data not shown; for Dienol (m/z 486) / Enol T-MAS (m/z 484) / Trienol FF-MAS (m/z 482): ± SD; for suppression of the Δ24 reduction step (accumulation of desmosterol): absence of miconazole, 10 µM potent inhibitors or 1 µM tamoxifen for 12 h
Procedure: Human hepatoma HepG2 cells were cultured to confluency in 60-mm dishes in phenol-red-free Dulbecco's modified Eagle's medium (DMEM) containing Pen-Strep (100 µg/ml), glucose (10 mM), sodium bicarbonate (45 mM) and glutamine (4 mM) supplemented with 10% fetal calf serum as described previously (24). At the beginning of the experiment the medium was changed to serum-free DMEM supplemented with 10% lipid-free "controlled process serum replacement" (CPSR-1). Compounds were added from ethanolic stock solutions to produce final ethanol concentrations of 0.1-0.3% v/v. Controls received the same amount of ethanol. Aminotriazole was added in an aqueous solution. Slices of rat testis (25 µm; 25-50 mg wet weight) were incubated under the same conditions in a shaking water bath (37°C). For isotopomer spectral analysis (ISA) of lathosterol, 1-^13C-acetate was added in an aqueous solution to a final concentration of 1 mM.
(§1) Cells were washed three times with ice cold PBS (pH 7.4) (once with 2 mg/ml BSA and twice with PBS alone). Epicoprostanol (1 µg in 50 µl of hexane) was added as internal standard to each sample. Sterols were extracted in hexane/isopropanol (3:2 v/v; two times with 4 ml). After drying under nitrogen and alkaline hydrolysis (1 N NaOH in 80% ethanol, 1.5 h at 70°C), the sterols were extracted with cyclohexane (two times with 3 ml). After drying under nitrogen, sterols were converted to their trimethylsilyl (TMS) derivatives by adding 100 µl bis(trimethylsilyl)trifluoracetamide (Pierce)/n-decane (1:1; v/v) and heating for 1 h at 70°C in a conical glass tube. This solution (1-2 µl) was used for gas-chromatography/mass-spectrometry (GC/MS). Rat testes (0.05-0.15 g) were homogenized manually, and lipids were extracted in hexane/isopropanol (3:2 v/v; two times with 4 ml). The extracts were deproteinized with acetone (3 ml) and processed as described above. The observed sterol levels in testis were normalized to correspond to 0.1 g of tissue (wet weight).
(§2) Gas-chromatography was done in the splitless mode with temperature programming as follows: 150°C for 1 min, followed by 20°C/min up to 260°C and 10°C/min up to 280°C (hold for 15 min). Mass spectral data were collected either in the full-scan mode (m/z 50-550) or by selective ion monitoring (SIM). For SIM analyses the electron multiplier voltage was raised by 300 V after the elution of lathosterol to increase the sensitivity of detection for lanosterol, dihydrolanosterol, methylsterols, dimethylsterols and plant sterols. The internal standard epicoprostanol was monitored at m/z 370. […] Peak integration was performed manually, and sterols were quantified from SIM analyses against the internal standard. Unless stated otherwise, MAS amounts are given as a percentage of the control.

liver slices = test: Influence of bile acids on methylsterols and dimethylsterols in liver slices; type: cell-based; settings: bile acids 160 µM for 9-h, n=2 for UDCA, CDCA, DCA, n=3 for CA and LCA, ratio to campesterol
Procedure: as §1, §2

Δ24-reductase = target: T1, Δ24-reductase (Homo sapiens, UniProt Q15392); test: Δ24-reductase assay (conversion of lanosterol to dihydrolanosterol in the presence of miconazole); type: cell-based; settings: HepG2 cells; conversion of lanosterol to dihydrolanosterol with added miconazole
T1 construct: endogenous in cells; host or cells: HepG2
T1 sequence (Q15392 23-516): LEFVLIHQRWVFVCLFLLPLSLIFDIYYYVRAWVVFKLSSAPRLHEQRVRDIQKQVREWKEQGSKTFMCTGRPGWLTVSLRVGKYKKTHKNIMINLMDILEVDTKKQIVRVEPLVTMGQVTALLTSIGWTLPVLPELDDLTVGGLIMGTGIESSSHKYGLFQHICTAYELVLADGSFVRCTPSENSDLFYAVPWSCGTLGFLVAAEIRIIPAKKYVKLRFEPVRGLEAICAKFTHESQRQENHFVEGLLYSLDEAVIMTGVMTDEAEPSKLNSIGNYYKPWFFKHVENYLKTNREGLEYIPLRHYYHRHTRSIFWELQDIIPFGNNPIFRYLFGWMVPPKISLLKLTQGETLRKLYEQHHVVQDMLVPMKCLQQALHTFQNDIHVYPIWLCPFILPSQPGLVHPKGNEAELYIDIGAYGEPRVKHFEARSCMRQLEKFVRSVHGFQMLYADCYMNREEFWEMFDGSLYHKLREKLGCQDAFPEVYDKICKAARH
Procedure: HepG2 cells were incubated for 12 h with 10 µM simvastatin (a kind gift from M. Stapff (MSD, Germany)) to deplete cholesterol precursors. Thereafter, the medium was changed to one containing 10 µM simvastatin, 10 µM miconazole (an inhibitor of 14α-demethylation) and 6 µg/dish lanosterol. After 12 h incubation, neutral sterols were extracted as described above, and the samples were monitored for lanosterol (m/z 498 (M^+) and m/z 393 (M-TMSOH-CH3)) and dihydrolanosterol (m/z 500 (M^+) and m/z 395 (M-TMSOH-CH3)) by GC/MS. Dihydrolanosterol was quantified by comparing the ratio of SIM abundances at m/z 395 and 370 (epicoprostanol) against a standard curve constructed from SIM results on mixtures of authentic dihydrolanosterol and epicoprostanol. Desmosterol was quantified analogously by SIM.

[1] = aminotriazole 20000 µM, tamoxifen 1 µM, combination 20000 + 1 µM, incubation time not clearly stated
[2] = Conc. 10 µM (combinations 10 + 10 µM), 12 h, n=2

C[C@H](CCC(=O)O)[C@H]1CC[C@H]2[C@@H]3[C@H](O)C[C@@H]4C[C@H](O)CC[C@]4(C)[C@H]3CC[C@]12C [CDCA, Chenodeoxycholic acid]
FF-MAS Dimethylst.-trien (482 m/z) (HepG2 cells): 197 ± 10 % of control
Methylst.-dien (470 m/z) (HepG2 cells): 187 ± 5 % of control
T-MAS Dimethylst.-dien (484 m/z) (HepG2 cells): 234 ± 11 % of control
FF-MAS Dimethylst.-trien (482 m/z) (liver slices): 128 % of control
Methylst.-dien (470 m/z) (liver slices): 181 % of control
T-MAS Dimethylst.-dien (484 m/z) (liver slices): 296 % of control

C[C@]12CC[C@H](O)CC1=CC[C@@H]1[C@@H]2CC[C@]2(C)C(=O)CC[C@@H]12 [dehydroepiandrosterone]
changes in the cholesterol precursor pattern (HepG2 cells): only minor changes

C[C@H](CCC(=O)O)[C@H]1CC[C@H]2[C@@H]3CC[C@@H]4C[C@H](O)CC[C@]4(C)[C@H]3C[C@H](O)[C@]12C [DCA, Deoxycholic acid]
FF-MAS Dimethylst.-trien (482 m/z) (HepG2 cells): 226 ± 17 % of control
Methylst.-dien (470 m/z) (HepG2 cells): 211 ± 6 % of control
T-MAS Dimethylst.-dien (484 m/z) (HepG2 cells): 320 ± 32 % of control
FF-MAS Dimethylst.-trien (482 m/z) (liver slices): 103 % of control
Methylst.-dien (470 m/z) (liver slices): 144 % of control
T-MAS Dimethylst.-dien (484 m/z) (liver slices): 210 % of control

Nc1nc[nH]n1 [Aminotriazole]
Dienol (m/z 486) (HepG2 cells; [1]): 725 ± 65 % of control
Enol T-MAS (m/z 484) (HepG2 cells; [1]): 610 ± 20 % of control
Trienol FF-MAS (m/z 482) (HepG2 cells; [1]): 229 ± 18 % of control

C[C@]12CC[C@H]3[C@@H](CCC4=CC(=O)CC[C@@]43C)[C@@H]1CC[C@@H]2O [testosterone, Testosterone]
changes in the cholesterol precursor pattern (HepG2 cells): only minor changes

C[C@]12CC[C@@H]3c4ccc(O)cc4CC[C@H]3[C@@H]1CC[C@@H]2O [β-estradiol, 17β-Estradiol]
changes in the cholesterol precursor pattern (HepG2 cells): only minor changes
effect on the accumulation of cholesterol precursors observed with progesterone alone (HepG2 cells; β-estradiol 10 µM in combination with progesterone 10 µM): did not alter

COc1ccc(CCN(C)CCCC(C#N)(c2ccc(OC)c(OC)c2)C(C)C)cc1OC (centres unmarked) [Verapamil]
Dienol (m/z 486) (HepG2 cells; [2]): 18 ± 4 % of control
Enol T-MAS (m/z 484) (HepG2 cells; [2]): 416 ± 79 % of control
Trienol FF-MAS (m/z 482) (HepG2 cells; [2]): 498 ± 103 % of control

C[C@H](CCC(=O)O)[C@H]1CC[C@H]2[C@@H]3CC[C@@H]4C[C@H](O)CC[C@]4(C)[C@H]3CC[C@]12C [LCA, Lithocholic acid]
FF-MAS Dimethylst.-trien (482 m/z) (HepG2 cells): 453 ± 88 % of control
Methylst.-dien (470 m/z) (HepG2 cells): 459 ± 29 % of control
T-MAS Dimethylst.-dien (484 m/z) (HepG2 cells): 744 ± 155 % of control
FF-MAS Dimethylst.-trien (482 m/z) (liver slices): 91 % of control
Methylst.-dien (470 m/z) (liver slices): 67 % of control
T-MAS Dimethylst.-dien (484 m/z) (liver slices): 172 % of control

CC/C(=C(\c1ccccc1)c1ccc(OCCN(C)C)cc1)c1ccccc1 [Tamoxifen]
suppression of the Δ24 reduction step (accumulation of desmosterol) (HepG2 cells): strongly suppressed
Dienol (m/z 486) (HepG2 cells; [1]): 34 ± 3 % of control
Enol T-MAS (m/z 484) (HepG2 cells; [1]): 617 ± 47 % of control
Trienol FF-MAS (m/z 482) (HepG2 cells; [1]): 297 ± 41 % of control

C[C@H](CCC(=O)O)[C@H]1CC[C@H]2[C@@H]3[C@@H](O)C[C@@H]4C[C@H](O)CC[C@]4(C)[C@H]3CC[C@]12C [UDCA, Ursodeoxycholic acid]
FF-MAS Dimethylst.-trien (482 m/z) (HepG2 cells): 309 ± 51 % of control
Methylst.-dien (470 m/z) (HepG2 cells): 509 ± 19 % of control
T-MAS Dimethylst.-dien (484 m/z) (HepG2 cells): 655 ± 84 % of control
FF-MAS Dimethylst.-trien (482 m/z) (liver slices): 204 % of control
Methylst.-dien (470 m/z) (liver slices): 235 % of control
T-MAS Dimethylst.-dien (484 m/z) (liver slices): 633 % of control

C[C@]12CCC(=O)C=C1CC[C@@H]1[C@@H]2CC[C@]2(C)C(=O)CC[C@@H]12 [androstenedione, 4-Androsten-3,17-dione]
changes in the cholesterol precursor pattern (HepG2 cells): only minor changes

CC(=O)[C@@]1(O)CC[C@H]2[C@@H]3CC=C4C[C@@H](O)CC[C@]4(C)[C@H]3CC[C@@]21C [17α-OH-Pregnenolone, 17α-Hydroxy-pregnenolone]
Dienol (m/z 486) (HepG2 cells; [2]): 52 ± 6 % of control
Enol T-MAS (m/z 484) (HepG2 cells; [2]): 780 ± 57 % of control
Trienol FF-MAS (m/z 482) (HepG2 cells; [2]): 242 ± 19 % of control
suppression of the Δ24 reduction step (accumulation of desmosterol) (HepG2 cells): strongly suppressed
order of suppression of Δ24 reduction (Δ24-reductase): pregnenolone > progesterone > 17α-OH-pregnenolone >> 17α-OH-progesterone

Medroxyprogesterone
Dienol (m/z 486) (HepG2 cells; [2]): 509 ± 50 % of control
Enol T-MAS (m/z 484) (HepG2 cells; [2]): 1181 ± 90 % of control
Trienol FF-MAS (m/z 482) (HepG2 cells; [2]): 227 ± 11 % of control
